Measured values as given in ChEMBL document CHEMBL3856233, “Identification of (R)-(2-Chloro-3-(trifluoromethyl)phenyl)(1-(5-fluoropyridin-2-yl)-4-methyl-6,7-dihydro-1H-imidazo[4,5-c]pyridin-5(4H)-yl)methanone (JNJ 54166060), a Small Molecule Antagonist of the P2X7 receptor” (J Med Chem, 2016).
Converted amounts (≈) assume the structure as drawn.

Tests used:
[1] = Protein binding in rat plasma at 1 uM after 6 hrs by LC/MS/MS based equilibrium dialysis method; format: ADME, cell-free; conditions: read-out: PPB (converted)
[2] = molecular target: T1, P2X purinoceptor 7 (Mus musculus, UniProt Q9Z1M0); experiment: Antagonist activity at P2X7 receptor in LPS-stimulated mouse whole blood assessed as inhibition of Bz-ATP-induced IL-1beta release incubated for 30 mins after LPS stimulation for 1 hr followed by agonist addition measured after […] by ELISA; format: tissue-based
T1 sequence (Q9Z1M0 whole entry): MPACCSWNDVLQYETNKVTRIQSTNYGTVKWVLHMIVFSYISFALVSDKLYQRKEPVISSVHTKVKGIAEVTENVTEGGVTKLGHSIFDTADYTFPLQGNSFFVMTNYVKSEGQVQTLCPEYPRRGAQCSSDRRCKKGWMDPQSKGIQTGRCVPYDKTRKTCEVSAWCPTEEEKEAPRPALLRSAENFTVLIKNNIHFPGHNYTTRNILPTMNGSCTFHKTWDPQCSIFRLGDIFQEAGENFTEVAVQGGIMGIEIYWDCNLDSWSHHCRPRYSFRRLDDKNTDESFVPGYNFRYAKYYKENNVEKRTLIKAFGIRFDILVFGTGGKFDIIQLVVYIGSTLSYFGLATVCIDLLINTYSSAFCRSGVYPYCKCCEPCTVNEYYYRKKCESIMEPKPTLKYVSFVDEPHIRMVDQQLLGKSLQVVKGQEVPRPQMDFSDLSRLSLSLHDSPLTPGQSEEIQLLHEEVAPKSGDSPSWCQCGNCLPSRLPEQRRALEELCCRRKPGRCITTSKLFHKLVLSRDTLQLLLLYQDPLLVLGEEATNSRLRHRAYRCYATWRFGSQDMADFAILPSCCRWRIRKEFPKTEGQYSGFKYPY

[3] = Protein binding in mouse plasma at 1 uM after 6 hrs by LC/MS/MS analysis; format: ADME, cell-free; conditions: read-out: PPB (converted)
[4] = Clearance in Sprague-Dawley rat at 1 mg/kg, iv after 0.033 to 24 hrs by LC/MS/MS analysis; format: ADME, organism-based; conditions: in vivo
[5] = Clearance in Beagle dog at 1 mg/kg, iv after 0.033 to 24 hrs by LC/MS/MS analysis; format: ADME, organism-based, Canis lupus familiaris; conditions: in vivo
[6] = Clearance in cynomolgus monkey at 1 mg/kg, iv after 0.033 to 24 hrs by LC/MS/MS analysis; format: ADME, organism-based, Macaca fascicularis; conditions: in vivo
[7] = Volume of distribution at steady state in Sprague-Dawley rat at 1 mg/kg, iv after 0.033 to 24 hrs by LC/MS/MS analysis; format: ADME, organism-based; conditions: in vivo, read-out: Vdss
[8] = Volume of distribution at steady state in Beagle dog at 1 mg/kg, iv after 0.033 to 24 hrs by LC/MS/MS analysis; format: ADME, organism-based, Canis lupus familiaris; conditions: in vivo, read-out: Vdss
[9] = Volume of distribution at steady state in cynomolgus monkey at 1 mg/kg, iv after 0.033 to 24 hrs by LC/MS/MS analysis; format: ADME, organism-based, Macaca fascicularis; conditions: in vivo, read-out: Vdss
[10] = Half life in Sprague-Dawley rat at 1 mg/kg, iv by LC/MS/MS analysis; format: ADME, organism-based; conditions: in vivo
[11] = Half life in Beagle dog at 1 mg/kg, iv by LC/MS/MS analysis; format: ADME, organism-based, Canis lupus familiaris; conditions: in vivo
[12] = Half life in cynomolgus monkey at 1 mg/kg, iv by LC/MS/MS analysis; format: ADME, organism-based, Macaca fascicularis; conditions: in vivo
[13] = Cmax in Sprague-Dawley rat at 5 mg/kg, po after 0.033 to 24 hrs by LC/MS/MS analysis; format: ADME, organism-based; set-up: dose 5 mg/kg, route oral; conditions: in vivo
[14] = Cmax in cynomolgus monkey at 5 mg/kg, po after 0.033 to 24 hrs by LC/MS/MS analysis; format: ADME, organism-based, Macaca fascicularis; set-up: dose 5 mg/kg, route oral; conditions: in vivo
[15] = Tmax in Sprague-Dawley rat at 5 mg/kg, po after 0.033 to 24 hrs by LC/MS/MS analysis; format: ADME, organism-based; conditions: in vivo
[16] = Tmax in Beagle dog at 5 mg/kg, po after 0.033 to 24 hrs by LC/MS/MS analysis; format: ADME, organism-based, Canis lupus familiaris; conditions: in vivo
[17] = Tmax in cynomolgus monkey at 5 mg/kg, po after 0.033 to 24 hrs by LC/MS/MS analysis; format: ADME, organism-based, Macaca fascicularis; conditions: in vivo
[18] = Oral bioavailability in Sprague-Dawley rat at 5 mg/kg after 0.033 to 24 hrs by LC/MS/MS analysis; format: ADME, organism-based; conditions: in vivo
[19] = Oral bioavailability in Beagle dog at 5 mg/kg after 0.033 to 24 hrs by LC/MS/MS analysis; format: ADME, organism-based, Canis lupus familiaris; conditions: in vivo
[20] = Tmax in rat at 1000 mg/kg, po; format: ADME, organism-based; conditions: in vivo
[21] = system: Rattus norvegicus; experiment: Toxicity in rat assessed as CNS side effects up to 1000 mg/kg, po administered on day 1 followed by necropsy on day 2; format: organism-based; conditions: in vivo
[22] = system: Rattus norvegicus; experiment: Toxicity in rat assessed as increase in total serum cholesterol at 125 to 250 mg/kg, po administered for 4 days followed by necropsy on day 5 post treatment by histological analysis; format: organism-based; conditions: in vivo, 96 h
[23] = system: Rattus norvegicus; experiment: Toxicity in rat assessed as central lobular hepatocellular degeneration at 250 mg/kg/day, po administered for 4 days followed by necropsy on day 5 post treatment by histological analysis; format: organism-based; conditions: in vivo, 96 h
[24] = molecular target: T2, CYP3A4 (Homo sapiens, UniProt P08684); experiment: Inhibition of CYP3A4 in human liver microsomes using midazolam as substrate assessed as reduction in 1-OH-midazolam formation at 0.313 uM by LC/MS/MS analysis; format: ADME; conditions: probe midazolam
[25] = molecular target: T2, CYP3A4; experiment: Inhibition of CYP3A4 in human liver microsomes using midazolam as substrate assessed as reduction in 1-OH-midazolam formation at 0.625 uM by LC/MS/MS analysis; format: ADME; conditions: probe midazolam
[26] = molecular target: T2, CYP3A4; experiment: Inhibition of CYP3A4 in human liver microsomes using midazolam as substrate assessed as reduction in 1-OH-midazolam formation at 1.25 uM by LC/MS/MS analysis; format: ADME; conditions: probe midazolam
[27] = molecular target: T2, CYP3A4; experiment: Inhibition of CYP3A4 in human liver microsomes using midazolam as substrate assessed as reduction in 1-OH-midazolam formation at 10 uM by LC/MS/MS analysis; format: ADME; conditions: probe midazolam
[28] = molecular target: T2, CYP3A4; experiment: Inhibition of CYP3A4 in human liver microsomes using midazolam as substrate assessed as reduction in 4-OH-midazolam formation at 0.313 uM by LC/MS/MS analysis; format: ADME; conditions: probe midazolam
[29] = Permeability from basolateral to apical side in human Caco2 cells at 10 uM after […] by LC/MS/MS analysis; format: ADME, cell-based; conditions: Caco-2, read-out: permeability
[30] = system: Rattus norvegicus; experiment: Toxicity in rat assessed as CNS side effects up to 250 mg/kg, po for 4 days followed by necropsy on day 5 post treatment; format: organism-based; conditions: in vivo, 96 h
[31] = system: Rattus norvegicus; experiment: Toxicity in rat assessed as induction of central lobular hepatocellular necrosis at 250 mg/kg/day, po administered for 4 days followed by necropsy on day 5 post treatment by histological analysis; format: organism-based; conditions: in vivo, 96 h
[32] = Brain tissue binding in rat brain homogenate at 5 uM after 5 hrs by LC/MS/MS analysis; conditions: in vitro
[33] = Solubility of compound in phosphate buffer at pH 2 at room temperature after 3 days
[34] = Solubility of the compound in phosphate buffer at pH 7 at room temperature after 3 days

T2 sequence (P08684 whole entry): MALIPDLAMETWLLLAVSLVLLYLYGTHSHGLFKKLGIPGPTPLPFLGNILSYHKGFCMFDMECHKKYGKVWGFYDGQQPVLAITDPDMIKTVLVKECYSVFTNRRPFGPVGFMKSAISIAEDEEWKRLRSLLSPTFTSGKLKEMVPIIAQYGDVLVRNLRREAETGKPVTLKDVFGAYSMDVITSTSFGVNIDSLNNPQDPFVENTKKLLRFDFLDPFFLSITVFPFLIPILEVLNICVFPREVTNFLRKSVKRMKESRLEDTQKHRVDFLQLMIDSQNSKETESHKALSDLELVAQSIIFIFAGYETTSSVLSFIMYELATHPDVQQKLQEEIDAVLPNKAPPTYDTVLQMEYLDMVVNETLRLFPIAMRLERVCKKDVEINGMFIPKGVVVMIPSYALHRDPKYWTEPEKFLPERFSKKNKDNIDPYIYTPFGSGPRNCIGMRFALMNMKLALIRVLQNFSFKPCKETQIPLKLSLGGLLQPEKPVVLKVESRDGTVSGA

fraction unbound at 6 h, 1 µM [1]: 0.051
IC50 [2]: 160 nM
fraction unbound at 6 h, 1 µM [3]: 0.045
clearance [4]: 30 mL/min/kg
clearance [5]: 5.5 mL/min/kg
clearance [6]: 14 mL/min/kg
Vd [7]: 3.8 L/kg
Vd [8]: 3.6 L/kg
Vd [9]: 2.1 L/kg
half-life [10]: 1.7 h
half-life [11]: 11.9 h
half-life [12]: 4.2 h
Cmax [13]: 375 ng/mL
Cmax [14]: 389 ng/mL
Tmax [15]: 1 h
Tmax [16]: 0.5 h
Tmax [17]: 2.3 h
bioavailability [18]: 55%
bioavailability [19]: > 100%
Tmax [20]: 24 h
inhibition at 0.313 µM [24]: 20%
inhibition at 0.625 µM [25]: 29%
inhibition at 1.25 µM [26]: 41%
inhibition at 10 µM [27]: 74%
inhibition at 0.313 µM [28]: 0.1%
Papp B→A at 10 µM [29]: 35 ×10⁻⁶ cm/s
Brain tissue binding [32]: 98.5%
solubility at 72 h [33]: > 400 µM
solubility at 72 h [34]: 29 µM (≈ 12.7 µg/mL)
SMILES: C[C@@H]1c2ncn(-c3ccc(F)cn3)c2CCN1C(=O)c1cccc(C(F)(F)F)c1Cl
Activity [21]: Non-Toxic
Activity [22]: Toxic
Activity [23]: Toxic
Activity [30]: Non-Toxic
Activity [31]: Toxic
